According to ChEMBL document CHEMBL1201862, “PubChem BioAssay data set” (2004):
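Interpolation was linear, between the two tested concentrations surrounding the appropriate level; five concentrations were tested over 48 hours in 96-well plates. The concentration for 50% growth inhibition is given as GI50.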 Activity calls are given as the source filed them. Rule as the data show it: active = GI50 up to about 1.1 µM and inactive = higher. Non-standard residues stand in square brackets, D forms with d. Residues, ends and D or L forms follow the SMILES beside them. ξ: configuration not given here. *: point of attachment. Cbz = O=C(OCc1ccccc1)*; ξK = NCCCCC(N)C(=O)O

Experiments:
Assay in all cases: DTP human tumour cell line panel, 48 h
[1] = test system: TK-10
[2] = test system: Hs-578T
[3] = test system: SF-268
[4] = test system: M14
[5] = test system: MDA-MB-231
[6] = test system: UACC-62
[7] = test system: SF-539
[8] = test system: SF-295
[9] = test system: CCRF-CEM
[10] = test system: UACC-257
[11] = test system: SK-MEL-5
[12] = test system: DU-145
[13] = test system: UO-31
[14] = test system: OVCAR-5
[15] = test system: MDA-MB-435
[16] = test system: Malme-3M
[17] = test system: HCT-116
[18] = test system: K562

Measured: GI50

CCCCC(/C=C\COC1CCCCO1)=C/C(=O)OCC (stereo not drawn)
inactive: [1] > 100 µM | [2] 83.9 µM | [3] > 100 µM | [4] 91.6 µM | [5] > 100 µM | [6] 55.7 µM | [7] 14.3 µM | [8] 44.4 µM | [9] 33.8 µM | [10] > 100 µM | [11] 92.5 µM | [12] > 100 µM | [13] > 100 µM | [14] > 100 µM | [15] > 100 µM | [16] > 100 µM | [17] 28.6 µM | [18] 45.2 µM

C=C(C)C(CC=C(C)C)CC12CC(CC=C(C)C)C(C)(C)C(CC=C(C)C)(C(=O)C(Cc3ccc(O)c(O)c3)=C1O)C2=O (stereo not drawn)
inactive: [1] > 100 µM | [2] > 100 µM | [3] > 100 µM | [4] > 100 µM | [5] > 100 µM | [6] 85.3 µM | [7] > 100 µM | [8] > 100 µM | [9] 59.6 µM | [10] > 100 µM | [11] > 100 µM | [12] > 100 µM | [13] > 100 µM | [14] > 100 µM | [15] > 100 µM | [16] 57.8 µM | [17] > 100 µM | [18] 99.3 µM

Nc1cc2c3c(cccc3c1)NC2=O
inactive: [1] > 100 µM | [2] > 100 µM | [3] 11.2 µM | [4] 34.6 µM | [5] 70.3 µM | [6] 63 µM | [7] 80.7 µM | [8] > 100 µM | [9] 8.05 µM | [10] > 100 µM | [11] 92.3 µM | [12] > 100 µM | [13] 21.2 µM | [14] > 100 µM | [15] > 100 µM | [16] > 100 µM | [17] > 100 µM | [18] > 100 µM

O=C(O)c1ccc(C=C2Sc3ccccc3S2)cc1
inactive: [1] 75.9 µM | [2] 24 µM | [3] 52.6 µM | [4] 44.8 µM | [5] > 100 µM | [6] 26.2 µM | [7] > 100 µM | [8] 33.5 µM | [9] 55.5 µM | [10] 54.5 µM | [11] 51.6 µM | [12] > 100 µM | [13] 63.8 µM | [14] 66.1 µM | [15] 21.1 µM | [16] 84.7 µM | [17] 48.1 µM | [18] 70.5 µM

CO/N=C(\C(=O)Nc1cncs1)c1csc(N)n1
inactive: [1] > 10 µM | [2] > 10 µM | [3] > 10 µM | [4] > 10 µM | [5] > 10 µM | [6] > 10 µM | [7] > 10 µM | [8] > 10 µM | [9] > 10 µM | [10] > 10 µM | [11] > 10 µM | [12] > 10 µM | [13] > 10 µM | [14] > 10 µM | [15] > 10 µM | [16] > 10 µM | [17] > 10 µM | [18] > 10 µM

CC1(C)C2CCC(CN)(C2)C1N (stereo not drawn)
inactive: [1] > 100 µM | [2] > 100 µM | [3] > 100 µM | [4] > 100 µM | [5] > 100 µM | [6] > 100 µM | [7] > 100 µM | [8] > 100 µM | [9] > 100 µM | [10] 14.8 µM | [11] > 100 µM | [12] > 100 µM | [13] > 100 µM | [14] > 100 µM | [15] > 100 µM | [16] > 100 µM | [17] > 100 µM | [18] > 100 µM

CCOC(=O)c1nc2c3c(ncn2n1)Oc1c(c(-c2ccccc2)nn1-c1ccccc1)C3c1ccc(Cl)cc1 (stereo not drawn)
inactive: [1] > 100 µM | [2] > 100 µM | [3] > 100 µM | [4] > 100 µM | [5] > 100 µM | [6] > 100 µM | [7] > 100 µM | [8] > 100 µM | [9] > 100 µM | [10] > 100 µM | [11] > 100 µM | [12] > 100 µM | [13] > 100 µM | [14] > 100 µM | [15] > 100 µM | [16] > 100 µM | [17] > 100 µM | [18] > 100 µM

NCCCCC(NC(=O)OCc1ccccc1)C(=O)NCC(N)=O (stereo not drawn) (Cbz-[ξK]-Gly-NH2)
inactive: [2] > 100 µM | [3] > 100 µM | [4] > 100 µM | [5] > 100 µM | [6] > 100 µM | [7] > 100 µM | [8] > 100 µM | [9] > 100 µM | [10] > 100 µM | [11] > 100 µM | [12] > 100 µM | [13] > 100 µM | [14] > 100 µM | [15] > 100 µM | [16] > 100 µM | [17] > 100 µM | [18] > 100 µM
